In series [1] the test system is Plasmodium falciparum. Description: Antimalarial activity against Plasmodium falciparum. Format: functional, organism-based.
For series [2], the target named is SRSF protein kinase 1 (Homo sapiens, UniProt Q96SB4). Put plainly: Inhibition of SRPK1 kinase (unknown origin).
The subject of series [3] is Human immunodeficiency virus 1. Put plainly: Antiviral activity against Human immunodeficiency virus 1. Format: functional, organism-based.
A short description of series [4]: Drug elimination in pig at 50 ppm. The settings on record: in vivo, read-out: Drug excretion. The format is ADME, organism-based, Sus scrofa.
In series [5] the test system is Trichomonas vaginalis. Description: […] activity against Trichomonas vaginalis assessed as growth inhibition after 24 hrs. Format: functional.
In series [6] the test system is Rattus norvegicus. Put plainly: Anti-inflammatory activity in Wistar rat at 100 mg/kg assessed as protection against edema formation dosed 1 hr before carrageenan challenge measured at end of 3rd hr by plethysmography. The format is functional.
The subject of series [7] is Leishmania infantum. Put plainly: Leishmanicidal activity against Leishmania infantum. The format is functional, organism-based.
In series [8] the test system is Human immunodeficiency virus 1. Description: Antiviral activity against HIV1 3B infected in human MT4 cells assessed as inhibition of virus-induced cytopathic effect after 5 days by MTT assay. The format is functional, organism-based. The settings on record: Human immunodeficiency virus 1, 3B, MT4, 120 h. In general terms: Cytopathic effects are the visible damage that an infection or toxin causes in cultured cells.

Series [9] can be described thus: Cytotoxicity against human MT4 cells assessed as reduction cell viability after 5 days by MTT assay. The format is cell-based. (Tetrazolium dyes change colour on reduction, which living cells bring about.)
For series [10], the system named is Mycobacterium tuberculosis. Description: Antimycobacterial activity against Mycobacterium tuberculosis H37Rv. The format is functional.
The nature of series [11]: Cytotoxicity against human HCT15 cells. Format: functional, cell-based. The settings on record: HCT-15.
The test system of series [12] is T47D. Put plainly: Cytotoxicity against human T47D cells. The format is functional, cell-based.
Series [13] has as its system MDA-MB-468. Description: Cytotoxicity against human MDA-MB-468 cells. The format is functional, cell-based.
Series [14] is described as follows: Cytotoxicity against human SKOV3 cells. The settings on record: SK-OV-3. The format is functional, cell-based.
Series [15] is described as follows: Primary phase half life in im dosed goat. Format: ADME, organism-based, Capra hircus. The settings on record: in vivo, read-out: alphat1/2 (converted).
Series [16] relates to Candida. Put plainly: Antifungal activity against Candida assessed as growth inhibition. Format: functional.
The test system of series [17] is Leishmania infantum. Put plainly: Antileishmanial activity against Leishmania infantum. Format: functional, organism-based.
The subject of series [18] is Leishmania amazonensis. Description: Antileishmanial activity against Leishmania amazonensis. Format: functional, organism-based.
The nature of series [19]: Elimination half life in iv dosed dog. The settings on record: in vivo, read-out: beta t1/2 (converted). The format is ADME, organism-based, Canis lupus familiaris.
A short description of series [20]: Elimination half life in iv dosed rat. Format: ADME, organism-based. The settings on record: in vivo, read-out: beta t1/2 (converted).
Series [21] is described as follows: Drug elimination in human patient kidney at starting dose of 9 mg/m2 administered as 5 or 20 mins intravenous infusion on days 1 to 5 every 21 days. The format is ADME. The settings on record: urine, read-out: Drug excretion.

From ChEMBL document CHEMBL3351459, “Present status of quinoxaline motifs: excellent pathfinders in therapeutic medicine” (Eur J Med Chem, 2014) come the findings set out here.

Each structure is given as a SMILES string. Converted amounts (≈) assume the structure as drawn. A value given as a limit tells only on which side of the number the result lay.

Sequence of SRSF protein kinase 1 (Q96SB4 whole entry): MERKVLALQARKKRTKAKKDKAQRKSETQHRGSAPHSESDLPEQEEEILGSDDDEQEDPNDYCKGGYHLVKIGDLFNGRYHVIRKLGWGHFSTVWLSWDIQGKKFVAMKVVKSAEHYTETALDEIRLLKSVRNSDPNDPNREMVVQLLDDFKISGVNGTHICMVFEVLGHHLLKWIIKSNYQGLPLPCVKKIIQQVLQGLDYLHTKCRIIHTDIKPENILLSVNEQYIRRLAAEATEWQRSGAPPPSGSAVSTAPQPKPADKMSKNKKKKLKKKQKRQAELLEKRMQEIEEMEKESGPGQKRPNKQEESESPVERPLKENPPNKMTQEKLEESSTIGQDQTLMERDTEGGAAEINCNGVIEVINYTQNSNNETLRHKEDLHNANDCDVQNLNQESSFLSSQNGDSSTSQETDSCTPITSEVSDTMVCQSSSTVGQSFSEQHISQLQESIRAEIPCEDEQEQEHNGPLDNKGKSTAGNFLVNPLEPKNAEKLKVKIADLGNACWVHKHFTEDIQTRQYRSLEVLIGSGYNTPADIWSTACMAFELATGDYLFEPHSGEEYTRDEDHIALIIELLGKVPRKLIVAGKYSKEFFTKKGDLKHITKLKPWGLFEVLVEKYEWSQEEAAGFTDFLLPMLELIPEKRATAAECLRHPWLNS

One may read the IC50 as the concentration at which inhibition is half-maximal. Compound `[O-][n+]1c(Cl)c(OC2CCCCC2)nc2ccc(F)cc21` displayed an IC50 in [1] of 4100 nM.

For the compound `O=C(O)c1ccc2cc3nc(-c4cccs4)c(-c4cccs4)nc3cc2c1`, inhibition in [2] was half-maximal at 40 nM (IC50).

One may read the EC50 as the concentration giving half of the maximal effect. High values mean weaker potency, low ones greater potency. `Cc1cc2ncc(=O)n(CC(O)CO)c2cc1C` (centres undefined) showed an EC50 in series [3] of 0.15 µg/mL (≈ 0.604 µM). Regarding `COC(=O)N/N=C/c1c[n+]([O-])c2ccccc2[n+]1[O-]` [CARBADOX], the dose excreted in series [4] came to 90%. The term MIC denotes the lowest concentration found to suppress growth. As to `Cc1c(NCc2ccc(Cl)c(Cl)c2)[n+]([O-])c2cc(F)c(F)cc2[n+]1[O-]`, the MIC in [5] came out at 6.25 µg/mL (≈ 16.2 µM). Turning to `C=CCCCOc1cnc2cc(C)c(C)cc2n1`, in series [3], the EC50 came to 0.22 µg/mL (≈ 0.908 µM). The inhibition in vivo is the relative decrease from the control value, in per cent. Regarding `Cc1nc2ccccc2nc1OCC(=O)N/N=C/c1ccc(Cl)cc1`, the inhibition in vivo at 100 mg/kg in series [6] was found to be 65.9%. Compound `N#Cc1c(NC(=O)N2CCN(c3ccc(C(F)(F)F)cc3)CC2)[n+]([O-])c2ccc(Cl)cc2[n+]1[O-]` displayed an IC50 in series [7] of 5700 nM. The term CC50 denotes the concentration that lowers cell viability or growth by half. `c1ccc(-c2nc3ccccc3nc2-c2ccccc2)cc1`: the IC50 in series [8] was found to be 3.84 µg/mL (≈ 13.6 µM). In series [9], the CC50 at 120 h stood at 15.3 µg/mL (≈ 54.1 µM). As usually defined, the IC90 is the point of the concentration-response curve where the effect stands at 90%. Read a low IC90 as greater potency. For the compound `Cc1c(C(=O)Nc2ccccc2)[n+]([O-])c2cc(Cl)c(Cl)cc2[n+]1[O-]`, the IC90 in series [10] is less than 6.25 µg/mL. In the case of `CCCCCNCc1ccc2c(c1)C(=O)c1nccnc1C2=O`, the IC50 in series [11] was 50 nM; in [12] it was 80 nM; in series [13], 200 nM; in [14], 400 nM. As to `N#Cc1c(Nc2ccc(F)cc2)[n+]([O-])c2ccc(Cl)cc2[n+]1[O-]`, in series [10], the IC90 is less than 6.25 µg/mL. In the case of `CC(=O)c1c(C)[n+]([O-])c2ccccc2[n+]1[O-]` [MEQUINDOX], the half-life in [15] is 0.28 h. Take `O=c1[nH]c2cc3cccnc3c(Cl)c2nc1CBr`: the MIC in series [16] was determined as 31.2 µg/mL (≈ 96.3 µM). For the compound `N#Cc1c(NC(=O)C2CCCCC2)[n+]([O-])c2ccc(Cl)cc2[n+]1[O-]`, half-maximal inhibition in [17] (IC50) required 2500 nM.

Compound `N#Cc1c(NC(=O)CCCCl)[n+]([O-])c2ccc(Cl)cc2[n+]1[O-]` displayed an IC50 in series [18] of 700 nM. Take `C[C@@H](Oc1ccc(Oc2cnc3ccc(Cl)cc3n2)cc1)C(=O)O` [R(+)XK469]: the half-life in series [19] is 13.2 h; in [20], 13.5 h. In series [21], the dose excreted is 7%. For the compound `CCCNC(=O)c1c(C)[n+]([O-])c2ccc(Cl)cc2[n+]1[O-]`, the IC90 in [10] is less than 0.19 µg/mL.
